Read-outs that look alike come from different tables or passages of the source. Starred links: 1 amine or outer side, 2 acyl side, 3 side chain; linkers in the order of their positions; H or OH if unused. Positions of bridges follow the written chain, without caps; N, C: chain ends. Non-standard residues stand in square brackets, D forms with d. Residues, ends and D or L forms follow the SMILES beside them. ξ: configuration not given here. *: point of attachment. X8 = NCC[C@H](OC(=O)Cc1ccc(-c2ccccc2)cc1)C(=O)*; X6 = NCC[C@H](OC(=O)c1ccc(-c2ccccc2)cc1)C(=O)*; X9 = CCC(C)(C)C(=O)OCCC(=O)O[C@@H](CCN)C(=O)*; X3 = CCCCCCCC(=O)O[C@@H](CCN)C(=O)*; X11 = CCCCOP(=O)(CC(=O)*)OCCCC; Thr(3ξ) = CC(O)[C@H](N)C(=O)O; X10 = O=C(C1CNCCN1[*:1])[*:2]; X7 = CC(=O)O[C@@H](CCN)C(=O)*; X1 = CCC(C)(C)C(=O)OCCC(=O)*; X2 = CCCC(C)OC(=O)CCC(=O)*; Dab = NCC[C@H](N)C(=O)O; X4 = CCCCOC(=O)CCC(=O)*; Dap = NC[C@H](N)C(=O)O
How the values were obtained:
[1] = test system: E. coli WECO 1003; assay type: cell-based, Escherichia coli
Source text: (§1) In vitro activity of compounds provided herein may be assessed by standard testing procedures such as the determination of minimum inhibitory concentration (MIC, μg/mL) just as described in “Methods for Dilution Antimicrobial Susceptibility Tests for Bacteria That Grow Aerobically; Approved Standard—Ninth Edition,” published in 2012 by the Clinical and Laboratory Standards Institute, Wayne, Pa., USA. Thus, bacterial colonies grown overnight on Mueller-Hinton Agar plate were selected and suspended in sterile saline to a turbidity of about 80% transmittance, as measured by a spectrophotometer. The suspension was diluted 200-fold with cation-adjusted Mueller-Hinton broth to serve as the inoculum for testing. Two-fold serial dilutions of the test compound were performed in 96-well master plate to arrive at desired concentration. Samples of 10 microliter from each well of the master plate were transferred into respective wells of 96-well assay plate. Bacterial inoculum (90 microliter) was introduced into each well of the assay plate. The assay plate was placed in the incubator at 35° C. for about 24 h (without agitation) followed by the MIC determination. MIC values were determined based on the presence or absence of bacterial growth in wells at the given test agent concentration. MIC value is defined as the lowest concentration of test antibiotic that prevents visible bacterial growth.
(§2) The useful activity of exemplary compounds described herein against Gram-negative pathogens Pseudomonas aeruginosa, Escherichia coli, or Klebsiela pneumoniae is illustrated by the MIC data of Table 1.

[2] = test system: P. aeruginosa PAE 1001; assay type: cell-based, Pseudomonas aeruginosa
Source text: as §1, §2

[3] = test system: K. pneumoniae KPN1004; assay type: cell-based, Klebsiela pneumoniae
Source text: as §1, §2

[4] = Stability in human plasma at 37° C.; assay type: in vitro ADME; settings: for remaining at 1 h, 25 μM / remaining at 4 h, 25 μM: human, plasma
Method: Exemplary compounds of this invention were tested for stability in human plasma at 37° C., replicating in vivo conditions of mammalian blood. Plasma stability for select compounds was performed as follows. Human plasma (K2 EDTA) was obtained from Bioreclamation. The assay was carried out in 96-well microtiter plates. Test compounds were incubated in duplicate at 37° C. in the presence of plasma. Reaction mixtures (25 μL) contained a final concentration of 25 μM test compound. The extent of metabolism was calculated as the disappearance of the test compound over time. Eucatropine was included as a positive control to verify assay performance. At each given time point, 100 μL of quench solution (100% MeCN with 0.1% HCOOH) with internal standard was transferred to each well. Plates were sealed, vortexed, and centrifuged at 4° C. for 15 minutes at 4,000 rpm. The supernatant was transferred to fresh plates for LC/MS/MS analysis. The formation of a potential metabolite was monitored in all samples. The samples were analyzed on LC/MS/MS using an AB Sciex API 4000 instrument, coupled to a Shimadzu LC-20AD LC Pump system. Analytical samples were separated using a Waters Atlantis T3 dC18 reverse phase HPLC column (20 mm×2.1 mm) at […] a flow rate of 0.5 mL/min, eluting with 0.1% aq. HCOOH and 0.1% HCOOH in MeCN (using gradient from 2% to 98% of the latter). Remaining test compounds were quantified via MS/MS ion current.

[5] = test system: P. aeruginosa; test: P. aeruginosa thigh infection mouse model, IV dosing; assay type: in vivo, Pseudomonas aeruginosa; settings: CFU change at 12 h vs no treatment control, PMB values in parenthesis side-by-side
Source text: (§3) A lower ED50 value indicates a higher therapeutic efficacy of the drug. The number of surviving animals (from the total number of infected animals used at a given drug dose) is another indicator of efficacy. […] In thigh and lung infection models, a greater reduction in the bacterial colony-forming units (CFU) indicates stronger beneficial therapeutic effect (more bacterial eradication), while a lower CFU reduction or an increase in CFU value indicates a lower effect (less bacterial eradication), or an absence of the therapeutic effect.

[6] = test system: E. coli; test: E. coli septicemia (systemic) mouse model, IV dosing; assay type: in vivo, Escherichia coli; settings: PMB values are side-by-side comparator
Source text: as §3

[7] = test system: human HK-2 cell; test: Human HK-2 cell cytotoxicity assay (in vitro nephrotoxicity); assay type: cell-based
Source text: Nephrotoxicity of polymyxins could be determined in vitro using human renal […] (HK-2) cytotoxicity assay, analogously to that described, for example, by Keirstead et al. in Toxicol. Sci., 2014, vol. 137, pp. 278-291. In vivo, nephrotoxicity could be determined using urine biomarker assays, such as clinically validated neutrophil gelatinase-associated lipocalin (NGAL) assay described, for example by Devarajan in Scand. J. Clin. Lab. Invest. Suppl., 2008, vol. […], pp. 89-94.

[8] = test system: P. aeruginosa; test: P. aeruginosa lung infection (pneumonia) mouse model, SC dosing; assay type: in vivo, Pseudomonas aeruginosa
Source text: as §3

[9] = 35° C., about 24 h, cation-adjusted Mueller-Hinton broth

Row | SMILES | Antibacterial activity (MIC) E. coli WECO 1003 ([1]; WECO 1003, 24 h) [µg/mL] | Antibacterial activity (MIC) P. aeruginosa PAE 1001 ([2]; PAE 1001, 24 h) [µg/mL] | Antibacterial activity (MIC) K. pneumoniae KPN1004 ([3]; KPN1004, 24 h) [µg/mL] | further results
1 | CC(C)C[C@@H]1NC(=O)[C@@H](Cc2ccccc2)NC(=O)[C@H](CCN)NC(=O)[C@@H](NC(=O)[C@H](CCN)NC(=O)[C@@H](NC(=O)[C@H](CCN)OC(=O)Cc2ccc(-c3ccccc3)cc2)C(C)O)CCNC(=O)[C@H](C(C)O)NC(=O)[C@H](CCN)NC(=O)[C@H](CCN)NC1=O (stereo partly drawn) [Example 2] (X8-[Thr(3ξ)][Dab][Dab][Dab][dF]L[Dab][Dab][Thr(3ξ)]; lactam 3-C) | 8 | 4 | 2 | 
2 | CC(C)C[C@@H]1NC(=O)[C@@H](Cc2ccccc2)NC(=O)[C@H](CCN)NC(=O)[C@@H](NC(=O)[C@H](CCN)NC(=O)[C@@H](NC(=O)[C@H](CCN)OC(=O)c2ccc(-c3ccccc3)cc2)C(C)O)CCNC(=O)[C@H](C(C)O)NC(=O)[C@H](CCN)NC(=O)[C@H](CCN)NC1=O (stereo partly drawn) [Example 3] (X6-[Thr(3ξ)][Dab][Dab][Dab][dF]L[Dab][Dab][Thr(3ξ)]; lactam 3-C) | 4 | 4 | 4 | 
3 | CCCCOC(=O)CCC(=O)N[C@@H](CCN)C(=O)N[C@H](C(=O)N[C@@H](CCN)C(=O)N[C@H]1CCNC(=O)[C@H](C(C)O)NC(=O)[C@H](CCN)NC(=O)[C@H](CCN)NC(=O)[C@H](CC(C)C)NC(=O)[C@@H](Cc2ccccc2)NC(=O)[C@H](CCN)NC1=O)C(C)O (stereo partly drawn) [Example 7] (X4-[Dab][Thr(3ξ)][Dab][Dab][Dab][dF]L[Dab][Dab][Thr(3ξ)]; lactam 4-C) | 4 | 4 | 2 | remaining at 1 h, 25 μM [4]: 49%; remaining at 4 h, 25 μM [4]: 15%; P. aeruginosa Thigh model, IV dosing ΔlogCFU at 5 mg/kg [5]: −0.50
4 | CCC(C)(C)C(=O)OCCC(=O)N[C@@H](CCN)C(=O)N[C@H](C(=O)N[C@@H](CCN)C(=O)N[C@H]1CCNC(=O)[C@H](C(C)O)NC(=O)[C@H](CCN)NC(=O)[C@H](CCN)NC(=O)[C@H](CC(C)C)NC(=O)[C@@H](Cc2ccccc2)NC(=O)[C@H](CCN)NC1=O)C(C)O (stereo partly drawn) [Example 12] (X1-[Dab][Thr(3ξ)][Dab][Dab][Dab][dF]L[Dab][Dab][Thr(3ξ)]; lactam 4-C) | 2 | 4 | 2 | E. coli Systemic model, IV dosing ED50 [6]: 2.5 mg/kg; number (A) of surviving animals out of total (B) mice, A/B ([6]; at 5 mg/kg): 3/6; HK-2 cytotoxicity class [7]: Class 4; IC50 [7]: > 200 µM; Relative CFU count, vs. PMB ([8]; mouse lung infection, 10 mg/kg): 1.7 × 10^−5; P. aeruginosa Lung infection model ΔlogCFU at 10 mg/kg ([8]; mouse, CFU change at 24 h vs starting inoculum): −2.15; remaining at 1 h, 25 μM [4]: 67%; remaining at 4 h, 25 μM [4]: 31%; P. aeruginosa Thigh model, IV dosing ΔlogCFU at 5 mg/kg [5]: −1.44
5 | CCCCOP(=O)(CC(=O)N[C@@H](CCN)C(=O)N[C@H](C(=O)N[C@@H](CCN)C(=O)N[C@H]1CCNC(=O)[C@H](C(C)O)NC(=O)[C@H](CCN)NC(=O)[C@H](CCN)NC(=O)[C@H](CC(C)C)NC(=O)[C@@H](Cc2ccccc2)NC(=O)[C@H](CCN)NC1=O)C(C)O)OCCCC (stereo partly drawn) [Example 30] (X11-[Dab][Thr(3ξ)][Dab][Dab][Dab][dF]L[Dab][Dab][Thr(3ξ)]; lactam 4-C) |  |  |  | Antibacterial activity (MIC) E. coli WECO 1003 [1, 9]: 2 µg/mL; Antibacterial activity (MIC) P. aeruginosa PAE 1001 [2, 9]: 2 µg/mL; Antibacterial activity (MIC) K. pneumoniae KPN1004 [3, 9]: 4 µg/mL
6 | CCCC(C)OC(=O)CCC(=O)N1CCNCC1C(=O)N[C@H](C(=O)N[C@@H](CCN)C(=O)N[C@H]1CCNC(=O)[C@H](C(C)O)NC(=O)[C@H](CCN)NC(=O)[C@H](CCN)NC(=O)[C@H](CC(C)C)NC(=O)[C@@H](Cc2ccccc2)NC(=O)[C@H](CCN)NC1=O)C(C)O (stereo partly drawn) [Example 31] (X2-[X10][Thr(3ξ)][Dab][Dab][Dab][dF]L[Dab][Dab][Thr(3ξ)]; lactam 4-C) | 8 | 8 | 8 | 
7 | CCC(C)(C)C(=O)OCCC(=O)O[C@@H](CCN)C(=O)N[C@H](C(=O)N[C@@H](CCN)C(=O)N[C@H]1CCNC(=O)[C@H](C(C)O)NC(=O)[C@H](CCN)NC(=O)[C@H](CCN)NC(=O)[C@H](CC(C)C)NC(=O)[C@@H](Cc2ccccc2)NC(=O)[C@H](CCN)NC1=O)C(C)O (stereo partly drawn) [Example 34] (X9-[Thr(3ξ)][Dab][Dab][Dab][dF]L[Dab][Dab][Thr(3ξ)]; lactam 3-C) | 4 | 4 | 4 | 
8 | CCC(C)(C)C(=O)OCCC(=O)N[C@@H](CN)C(=O)N[C@H](C(=O)N[C@@H](CCN)C(=O)N[C@H]1CCNC(=O)[C@H](C(C)O)NC(=O)[C@H](CCN)NC(=O)[C@H](CCN)NC(=O)[C@H](CC(C)C)NC(=O)[C@@H](Cc2ccccc2)NC(=O)[C@H](CCN)NC1=O)C(C)O (stereo partly drawn) [Example 35] (X1-[Dap][Thr(3ξ)][Dab][Dab][Dab][dF]L[Dab][Dab][Thr(3ξ)]; lactam 4-C) | 1 | 4 | 4 | 
9 | CC(=O)O[C@@H](CCN)C(=O)N[C@H](C(=O)N[C@@H](CCN)C(=O)N[C@H]1CCNC(=O)[C@H](C(C)O)NC(=O)[C@H](CCN)NC(=O)[C@H](CCN)NC(=O)[C@H](CC(C)C)NC(=O)[C@@H](Cc2ccccc2)NC(=O)[C@H](CCN)NC1=O)C(C)O (stereo partly drawn) [Example 43] (X7-[Thr(3ξ)][Dab][Dab][Dab][dF]L[Dab][Dab][Thr(3ξ)]; lactam 3-C) | 8 | 8 | >32 | 
10 | CCCCCCCC(=O)O[C@@H](CCN)C(=O)N[C@H](C(=O)N[C@@H](CCN)C(=O)N[C@H]1CCNC(=O)[C@H](C(C)O)NC(=O)[C@H](CCN)NC(=O)[C@H](CCN)NC(=O)[C@H](CC(C)C)NC(=O)[C@@H](Cc2ccccc2)NC(=O)[C@H](CCN)NC1=O)C(C)O (stereo partly drawn) [Reference Example 1, reference compound] (X3-[Thr(3ξ)][Dab][Dab][Dab][dF]L[Dab][Dab][Thr(3ξ)]; lactam 3-C) | 4 | 8 | 2 | formation of the expected metabolite (compound of Example 44) by MS analysis [4]: no formation; metabolism in human plasma [4]: no discernable metabolism; remaining at 4 h, 25 μM [4]: 100%; P. aeruginosa Thigh model, IV dosing ΔlogCFU at 5 mg/kg [5]: −1.92
11 | CC(C)C[C@@H]1NC(=O)[C@@H](Cc2ccccc2)NC(=O)[C@H](CCN)NC(=O)[C@@H](NC(=O)[C@H](CCN)NC(=O)[C@@H](N)[C@@H](C)O)CCNC(=O)[C@H]([C@@H](C)O)NC(=O)[C@H](CCN)NC(=O)[C@H](CCN)NC1=O [Reference Example 40, Polymyxin B nonapeptide, reference compound] (H-T[Dab][Dab][Dab][dF]L[Dab][Dab]T; lactam 3-C) | >32 | >32 | >32 | HK-2 cytotoxicity class [7]: Class 4; IC50 [7]: > 200 µM

Reference: patent US9771394B2, “Antimicrobial polymyxins for treatment of bacterial infections” (priority 2014, dated 2017)
